Source: patent US6737383B1, “Herbicidal oxadiazolidines” (priority 1999, dated 2004)

Legend:
soybean = test: Test B pre/postemergence soybean; type: in vivo, Glycine max
In short: (§1)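 Response is a visual 0-to-10 score relative to untreated plants, where 0 means no effect and 10 means complete control, taken twelve to sixteen days after application. Treatments went onto soil at planting and onto foliage of 1- to 4-leaf plants, using a surfactant-containing non-phytotoxic solvent.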

smallflower flatsedge = test: Test B flood test smallflower flatsedge; type: in vivo, Cyperus difformis
In short: (§2)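 Read-out is a visual response score from 0 (no effect) to 10 (complete control), assigned by comparison with untreated controls. Treatment was applied at the 2-leaf stage, and plants stayed in the greenhouse for twelve to sixteen days before scoring.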

wheat = test: Test B pre/postemergence wheat; type: in vivo, Triticum aestivum
In short: as §1

duck salad = test: Test B flood test duck salad; type: in vivo, Heteranthera limosa
In short: as §2

giant foxtail = test: Test B pre/postemergence giant foxtail; type: in vivo, Setaria faberii
In short: as §1

wild oat = test: Test B pre/postemergence wild oat; type: in vivo, Avena fatua
In short: as §1

corn = test: Test B pre/postemergence corn; type: in vivo, Zea mays
In short: as §1

crabgrass = test: Test B pre/postemergence crabgrass; type: in vivo, Digitaria sanguinalis
In short: as §1

bamyardgrass = test: Test B flood test barnyardgrass; type: in vivo, Echinochloa crus-galli
In short: as §2

bedstraw = test: Test B pre/postemergence bedstraw; type: in vivo, Galium aparine; conditions: Preemergence
In short: as §1

blackgrass = test: Test B pre/postemergence blackgrass; type: in vivo, Alopecurus myosuroides
In short: as §1

rape = test: Test B pre/postemergence rape; type: in vivo, Brassica napus
In short: as §1

cocklebur = test: Test B pre/postemergence cocklebur; type: in vivo, Xanthium strumarium
In short: as §1

morningglory = test: Test B pre/postemergence morningglory; type: in vivo, Ipomoea hederacea
In short: as §1

surinam grass = test: Test B pre/postemergence surinam grass; type: in vivo, Brachiaria decumbens
In short: as §1

velvetleaf = test: Test B pre/postemergence velvetleaf; type: in vivo, Abutilon theophrasti
In short: as §1

[1] = Postemergence, Rate 62 g/ha, scale 0 to 10, 0 is no effect, 10 is complete control
[2] = Postemergence, Rate 125 g/ha, scale of 0 to 10 where 0 is no effect and 10 is complete control
[3] = Preemergence, Rate 62 g/ha, scale of 0 to 10 where 0 is no effect and 10 is complete control
[4] = Preemergence, Rate 125 g/ha, scale of 0 to 10 where 0 is no effect and 10 is complete control
[5] = Preemergence, Rate 250 g/ha, scale 0 to 10 (0 no effect, 10 complete control)
[6] = Preemergence, Rate 500 g/ha, scale of 0 to 10 where 0 is no effect and 10 is complete control
[7] = Rate 500 g/ha, Postemergence, scale 0 to 10, 0 is no effect, 10 is complete control
[8] = Rate 62 g/ha, flood test species, Pre-emergence, visual evaluation after twelve to sixteen days
[9] = Rate 125 g/ha, under heading Pre-emergence, flood test species, visual evaluation after twelve to sixteen days
[10] = Rate 250 g/ha, Pre-emergence (flood test species), scale 0 to 10, 0 is no effect, 10 is complete control
[11] = Rate 500 g/ha, Pre-emergence section of Table B, 0 to 10 scale (0 no effect, 10 complete control)
[12] = Postemergence, Rate 250 g/ha, scale of 0 to 10, 0 is no effect, 10 is complete control

With C=C(Cn1c(=O)on(C(=O)N(c2ccccc2)C(C)C)c1=O)C(C)C [Compound 649] the “Plant response rating, Soybean” value (soybean; [1]) was 2, the “Soybean plant response rating” value (soybean; [2]) was 2 and the “Soybean plant response rating” value (soybean; [3]) was 0. The “Soybean plant response rating” value (soybean; [4]) was 0, the “Plant response rating, Soybean” value (soybean; [5]) was 0 and the “Plant response rating, Soybean” value (soybean; [6]) was 0. The “Soybean plant response rating” value (soybean; [7]) was 3, the “Plant response rating, S. Flatsedge (0 to 10 scale, 0 is no effect, 10 is complete control)” value (smallflower flatsedge; [8]) was 0 and the “S. Flatsedge plant response rating (0 to 10 scale, 0 is no effect, 10 is complete control)” value (smallflower flatsedge; [9]) was 0. The “S. Flatsedge plant response rating” value (smallflower flatsedge; [10]) was 0, the “S. Flatsedge plant response rating” value (smallflower flatsedge; [11]) was 0 and the “Plant response rating, Wheat” value (wheat; [1]) was 0. For the same molecule, the “Wheat plant response rating” value (wheat; [2]) was 0, the “Wheat plant response rating” value (wheat; [3]) was 0 and the “Wheat plant response rating” value (wheat; [4]) was 0. For the same molecule, the “Plant response rating, Wheat” value (wheat; [5]) was 0, the “Plant response rating, Wheat” value (wheat; [6]) was 0 and the “Wheat plant response rating” value (wheat; [7]) was 0. The “Plant response rating, Ducksalad (0 to 10 scale, 0 is no effect, 10 is complete control)” value (duck salad; [8]) was 0, the “Ducksalad plant response rating (0 to 10 scale, 0 is no effect, 10 is complete control)” value (duck salad; [9]) was 0 and the “Ducksalad plant response rating” value (duck salad; [10]) was 0. The “Ducksalad plant response rating” value (duck salad; [11]) was 0, the “Plant response rating, Giant foxtail” value (giant foxtail; [1]) was 0 and the “Giant foxtail plant response rating” value (giant foxtail; [2]) was 2. The “Giant foxtail plant response rating” value (giant foxtail; [12]) was 2, the “Giant foxtail plant response rating” value (giant foxtail; [3]) was 0 and the “Plant response rating, Giant foxtail” value (giant foxtail; [5]) was 9. The “Plant response rating, Giant foxtail” value (giant foxtail; [6]) was 9, the “Giant foxtail plant response rating” value (giant foxtail; [7]) was 7 and the “Plant response rating, Wild oats” value (wild oat; [1]) was 0. The “Wild oats plant response rating” value (wild oat; [2]) was 0, the “Wild oats plant response rating” value (wild oat; [3]) was 0 and the “Wild oats plant response rating” value (wild oat; [4]) was 0. The “Plant response rating, Wild oats” value (wild oat; [5]) was 0, the “Plant response rating, Wild oats” value (wild oat; [6]) was 0 and the “Wild oats plant response rating” value (wild oat; [7]) was 0. The “Plant response rating, Corn” value (corn; [1]) was 0, the “Corn plant response rating” value (corn; [2]) was 0 and the “Corn plant response rating” value (corn; [12]) was 0. The “Corn plant response rating” value (corn; [3]) was 0, the “Corn plant response rating” value (corn; [4]) was 0 and the “Plant response rating, Corn” value (corn; [5]) was 0. For the same molecule, the “Plant response rating, Corn” value (corn; [6]) was 0, the “Corn plant response rating” value (corn; [7]) was 0 and the “Plant response rating, Crabgrass” value (crabgrass; [1]) was 0. For the same molecule, the “Crabgrass plant response rating” value (crabgrass; [2]) was 2, the “Crabgrass plant response rating” value (crabgrass; [3]) was 0 and the “Crabgrass plant response rating” value (crabgrass; [4]) was 1. For the same molecule, the “Plant response rating, Crabgrass” value (crabgrass; [5]) was 5, the “Plant response rating, Crabgrass” value (crabgrass; [6]) was 9 and the “Plant response rating, Barnyardgrass (0 to 10 scale, 0 is no effect, 10 is complete control)” value (bamyardgrass; [8]) was 0. For the same molecule, the “Barnyardgrass plant response rating (0 to 10 scale, 0 is no effect, 10 is complete control)” value (bamyardgrass; [9]) was 0, the “Barnyardgrass plant response rating” value (bamyardgrass; [10]) was 0 and the “Barnyardgrass plant response rating” value (bamyardgrass; [11]) was 2. For the same molecule, the “Bedstraw plant response rating” value (bedstraw; Rate 62 g/ha, scale of 0 to 10 where 0 is no effect and 10 is complete control) was 0, the “Bedstraw plant response rating” value (bedstraw; Rate 125 g/ha, scale of 0 to 10 where 0 is no effect and 10 is complete control) was 0 and the “Plant response rating, Bedstraw” value (bedstraw; Rate 250 g/ha, scale 0 to 10 (0 no effect, 10 complete control)) was 0. The “Plant response rating, Bedstraw” value (bedstraw; Rate 500 g/ha, scale of 0 to 10 where 0 is no effect and 10 is complete control) was 0, the “Plant response rating, Blackgrass” value (blackgrass; [1]) was 0 and the “Blackgrass plant response rating” value (blackgrass; [2]) was 0. For the same molecule, the “Blackgrass plant response rating” value (blackgrass; [12]) was 0, the “Blackgrass plant response rating” value (blackgrass; [3]) was 0 and the “Blackgrass plant response rating” value (blackgrass; [4]) was 0. The “Plant response rating, Blackgrass” value (blackgrass; [5]) was 0, the “Plant response rating, Blackgrass” value (blackgrass; [6]) was 0 and the “Blackgrass plant response rating” value (blackgrass; [7]) was 0. For the same molecule, the “Plant response rating, Rape” value (rape; [1]) was 0, the “Rape plant response rating” value (rape; [2]) was 0 and the “Rape plant response rating” value (rape; [3]) was 0. For the same molecule, the “Rape plant response rating” value (rape; [4]) was 0, the “Plant response rating, Rape” value (rape; [5]) was 0 and the “Plant response rating, Rape” value (rape; [6]) was 0. The “Rape plant response rating” value (rape; [7]) was 0, the “Plant response rating, Cocklebur” value (cocklebur; [1]) was 0 and the “Cocklebur plant response rating” value (cocklebur; [2]) was 0. The “Cocklebur plant response rating” value (cocklebur; [12]) was 0, the “Cocklebur plant response rating” value (cocklebur; [3]) was 0 and the “Cocklebur plant response rating” value (cocklebur; [4]) was 0. For the same molecule, the “Plant response rating, Cocklebur” value (cocklebur; [5]) was 0, the “Plant response rating, Cocklebur” value (cocklebur; [6]) was 0 and the “Cocklebur plant response rating” value (cocklebur; [7]) was 2. For the same molecule, the “Plant response rating, Morningglory” value (morningglory; [1]) was 4, the “Morningglory plant response rating” value (morningglory; [2]) was 7 and the “Morningglory plant response rating” value (morningglory; [12]) was 7. The “Morningglory plant response rating” value (morningglory; [3]) was 0, the “Morningglory plant response rating” value (morningglory; [4]) was 0 and the “Plant response rating, Morningglory” value (morningglory; [5]) was 0. The “Plant response rating, Morningglory” value (morningglory; [6]) was 0, the “Morningglory plant response rating” value (morningglory; [7]) was 8 and the “Plant response rating, B. signalgrass” value (surinam grass; [1]) was 0. For the same molecule, the “Plant response rating, B. signalgrass” value (surinam grass; [2]) was 0, the “B. signalgrass plant response rating” value (surinam grass; [12]) was 0 and the “B. signalgrass plant response rating” value (surinam grass; [3]) was 0. The “B. signalgrass plant response rating” value (surinam grass; [4]) was 0, the “Plant response rating, B. signalgrass” value (surinam grass; [5]) was 0 and the “Plant response rating, B. signalgrass” value (surinam grass; [6]) was 0. For the same molecule, the “B. signalgrass plant response rating” value (surinam grass; [7]) was 0, the “Plant response rating, Velvetleaf” value (velvetleaf; [1]) was 0 and the “Velvetleaf plant response rating” value (velvetleaf; [2]) was 0. For the same molecule, the “Velvetleaf plant response rating” value (velvetleaf; [3]) was 0, the “Velvetleaf plant response rating” value (velvetleaf; [4]) was 0 and the “Plant response rating, Velvetleaf” value (velvetleaf; [5]) was 0. For the same molecule, the “Plant response rating, Velvetleaf” value (velvetleaf; [6]) was 0 and the “Velvetleaf plant response rating” value (velvetleaf; [7]) was 0.
